{"source": "patent US20240103005A1", "about": "“N-ACRYLOYLINDOLES AND METHODS OF USE” (The University of Hong Kong, priority 2022, published 2024)", "test_system": "HepG2 cells", "experiment": "Imaging oxidized thiols in HepG2 cells under oxidative stress by NAI/NAIA couple", "format": "cell-based", "conditions": "50 μM, 10 min", "protocol": "Imaging Oxidized Thiols in HepG2 Cells Under Oxidative Stress by NAI/NAIA Couple\nHepG2 cells were plated on a 8-well Nunc Lab-Tek chambered slide system and allowed to grow in complete medium at 37° C. with 5% CO2 to ca. 70% confluency. The cells were then pretreated with solvent vehicles, H2O2 (0.5 or 1 mM) or H2O2 (1 mM)+NAC (5 mM) in complete medium for 15 min at 37° C. The cells were washed with PBS and incubated with NAI compound 3 (50 μM) in complete medium for 10 min at 37° C. After that, the cells were washed with PBS and fixed by 4% paraformaldehyde in PBS at room temperature for 15 min. […] The cells were washed thrice with PBS and then imaged in PBS by confocal fluorescence microscopy.\nConfocal fluorescence microscopy imaging was performed with a Zeiss laser scanning microscope 880 with a 20× water-immersion objective lens using ZEN 2.3 (Black Version) software (Carl Zeiss) with 3× magnification zoom-in. […] A region of interest (ROI) was created around individual cell, and cellular fluorescence intensity was measured. The reported average cellular fluorescence intensity was determined by averaging the measured intensity from 30 different cells from 3 different biological replicates/group. […]\nTherefore, we sought to utilize the NAI/NAIA couple to capture oxidized thiols and image them by confocal fluorescence microscopy (FIGS. 12A-12B). […]", "data": [{"compound": "C=CC(=O)N1CCc2cc(OCC(=O)OC(C)(C)C)ccc21", "note": "[compound 3b]", "values": [{"measurement": "trapping of free thiols in live cells", "result": "excellent trapping of free thiols"}]}]}
